Data reported in US8986733B2, “Materials and methods for nerve repair” (University of Florida Research Foundation, Inc., priority 2001, dated 2015).

Key:
CSPG [1] = assay: CSPG neoepitope (Ab1918) immunolabeling of acellular rat sciatic nerve segments treated en bloc; format: biochemical; conditions: en bloc treatment 16 h
Text: Preparation of acellular nerve grafts treated with chondroitinase. Adult (180-200 g) female SPRAGUE DAWLEY rats (HARLAN, Indianapolis, Ind.) were used as nerve donors and recipient hosts. Donor rats were anesthetized with halothane and decapitated. Sciatic nerves were exposed through a gluteal muscle-splitting incision and isolated free of underlying fascia. A 15-mm nerve segment was excised rostral to the bifurcation into common peroneal and tibial nerves. The segments were rinsed with cold sterile Ringer's solution, stabilized by pinning the ends to a thin plastic support, and transferred to a cryogenic vial. The vials were submerged in liquid nitrogen for 2 minutes and then transferred to a 37° C. water bath for 2 minutes. This freeze/thaw cycle was repeated, yielding acellular nerve grafts that were then stored in liquid nitrogen. On the day before grafting, the nerve grafts were warmed to room temperature and incubated in 100 μl phosphate buffered saline pH 7.4 (PBS) containing 2 units/ml chondroitinase ABC (SIGMA, St. Louis, Mo.) or in PBS (vehicle) only for 16 hours at 37° C. The grafts were rinsed twice with Ringer's and kept on ice prior to use. […]
(§1) Immunocytochemistry. Axonal regeneration was assessed by GAP-43 immunofluorescence and digital image analysis. […]

CSPG [2] = assay: CSPG-neoepitope immunolabeling of injured sciatic nerve after in vivo injection; design: species or system rat; conditions: single injection 1 U in 2 μl, 2 mm distal to injury; 4 days (transection) or 2 days (crush)
Experimental: Surgical procedures for nerve transection and nerve crush experiments. All surgical procedures were performed according to Institutional Animal Care and Use Committee (IACUC) approved protocols. Young adult SPRAGUE DAWLEY rats (HARLAN Indianapolis, Ind.) were deeply anesthetized with xylazine (15 mg/kg, i.m.) followed by ketamine-HCl (110 mg/kg, i.p.). Six animals received bilateral nerve crush injuries. Sciatic nerves were exposed and then crushed with firm pressure for thirty seconds with a DUMONT #5 forceps at a site 4 mm distal to the tendon of the internal obdurator. The crush site was marked with an epineurial suture. In a separate set of experiments, eight rats received bilateral sciatic nerve transection injuries using serrated scissors. The proximal and distal stumps were […] by epineurial neurorrhaphy using 9-0 ETHILON sutures. Fibrin glue (fibrinogen and thrombin) was then applied to stabilize the union. In both injury models, the right sciatic nerves were injected 2-mm distal to the injury with chondroitinase ABC (1 U in 2 μl) (high-purity, protease-free; SIGMA CHEMICAL CO., St. Louis, Miss.). Left sciatic nerves (with the same injury as the right side) were injected with vehicle alone (0.1% bovine serum albumin in PBS). […]
as §1

rat sciatic nerve = assay: Bilateral sciatic nerve crush injury (axonotmesis), GAP-43 axon scoring; format: in vivo; conditions: 2 days after injury; for axonal regeneration after nerve crush injury (GAP-43 immunoreactivity) vs vehicle: 1 U injected
Experimental: Surgical procedures for nerve transection and nerve crush experiments. All surgical procedures were performed according to Institutional Animal Care and Use Committee (IACUC) approved protocols. Young adult SPRAGUE DAWLEY rats (HARLAN Indianapolis, Ind.) were deeply anesthetized with xylazine (15 mg/kg, i.m.) followed by ketamine-HCl (110 mg/kg, i.p.). Six animals received bilateral nerve crush injuries. Sciatic nerves were exposed and then crushed with firm pressure for thirty seconds with a DUMONT #5 forceps at a site 4 mm distal to the tendon of the internal obdurator. The crush site was marked with an epineurial suture. In a separate set of experiments, eight rats received bilateral sciatic nerve transection injuries using serrated scissors. The proximal and distal stumps were […] by epineurial neurorrhaphy using 9-0 ETHILON sutures. Fibrin glue (fibrinogen and thrombin) was then applied to stabilize the union. In both injury models, the right sciatic nerves were injected 2-mm distal to the injury with chondroitinase ABC (1 U in 2 μl) (high-purity, protease-free; SIGMA CHEMICAL CO., St. Louis, […].). Left sciatic nerves (with the same injury as the right side) were injected with vehicle alone (0.1% bovine serum albumin in PBS). Muscle incisions were sutured and the skin closed with metal clips. After recovery from the anesthetic, animals were returned to standard housing. Two days (for crush injury) and four days (for transection injury) after surgery, nerves were removed under anesthesia and fixed as described below. One of the eight animals receiving nerve transection and repair was excluded because loss of continuity in one nerve occurred during convalescence.
The hypothesis that chondroitinase treatment improves axonal growth through the site of nerve crush injury was tested. Bilateral axonotmesis was achieved by severely crushing the sciatic nerves while maintaining the continuity of the nerve sheaths. […] Regenerating axons were labeled by GAP-43 immunofluorescence and scored by digital image analysis. […]

With chondroitinase ABC the “CSPG degradation (Ab1918 neoepitope immunostaining)” value (CSPG [1]) was “thoroughly degraded CSPG side-chains”, the “CSPG degradation in extracellular matrix around injection site” value (CSPG [2]) was “substantially, if not completely, degraded CSPG” and the “latency or rate of axonal regeneration after crush” value (rat sciatic nerve) was “no indication that the latency or rate of axonal regeneration was altered”. For the same substance, the “axonal regeneration after nerve crush injury (GAP-43 immunoreactivity) vs vehicle” value (rat sciatic nerve) was “no significant difference” and the “axonal regeneration after nerve crush injury (GAP-43 immunoreactivity) vs vehicle” value (rat sciatic nerve; listed as chondroitinase) was “not significantly effected”.
